Experiment [1] has as its target T1, Protein deacetylase HDAC6 (Homo sapiens, UniProt Q9UBN7).
T1 sequence (Q9UBN7 whole entry): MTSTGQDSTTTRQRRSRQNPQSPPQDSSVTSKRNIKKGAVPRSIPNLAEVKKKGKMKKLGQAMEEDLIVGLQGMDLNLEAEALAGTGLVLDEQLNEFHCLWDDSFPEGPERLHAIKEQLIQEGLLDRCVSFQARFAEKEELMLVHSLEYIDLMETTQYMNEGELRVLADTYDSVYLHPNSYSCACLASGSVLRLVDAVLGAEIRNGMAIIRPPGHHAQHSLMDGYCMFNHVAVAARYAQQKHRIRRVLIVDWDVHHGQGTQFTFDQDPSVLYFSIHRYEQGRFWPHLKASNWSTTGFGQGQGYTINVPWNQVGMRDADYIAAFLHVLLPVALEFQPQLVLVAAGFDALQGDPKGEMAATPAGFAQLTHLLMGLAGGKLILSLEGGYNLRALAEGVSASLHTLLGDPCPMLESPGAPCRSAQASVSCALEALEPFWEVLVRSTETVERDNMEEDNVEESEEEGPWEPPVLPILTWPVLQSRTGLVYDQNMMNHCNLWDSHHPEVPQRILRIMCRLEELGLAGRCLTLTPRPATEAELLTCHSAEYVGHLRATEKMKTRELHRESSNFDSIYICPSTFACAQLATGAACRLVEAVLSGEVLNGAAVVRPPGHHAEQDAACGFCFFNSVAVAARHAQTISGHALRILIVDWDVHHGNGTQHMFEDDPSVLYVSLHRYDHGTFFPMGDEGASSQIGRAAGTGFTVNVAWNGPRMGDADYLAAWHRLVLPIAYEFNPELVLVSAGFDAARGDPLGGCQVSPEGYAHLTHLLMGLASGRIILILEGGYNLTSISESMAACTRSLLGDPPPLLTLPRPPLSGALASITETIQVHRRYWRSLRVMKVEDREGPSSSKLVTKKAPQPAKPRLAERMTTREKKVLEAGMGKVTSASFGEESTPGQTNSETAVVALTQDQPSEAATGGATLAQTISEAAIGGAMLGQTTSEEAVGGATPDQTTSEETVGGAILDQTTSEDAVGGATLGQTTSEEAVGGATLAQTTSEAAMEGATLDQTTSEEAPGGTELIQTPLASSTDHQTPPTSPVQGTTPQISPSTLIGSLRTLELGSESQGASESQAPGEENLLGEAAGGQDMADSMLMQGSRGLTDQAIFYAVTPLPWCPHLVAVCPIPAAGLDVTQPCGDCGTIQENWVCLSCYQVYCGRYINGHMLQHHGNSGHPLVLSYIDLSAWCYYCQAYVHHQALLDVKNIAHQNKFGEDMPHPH
The experiment in a line: Inhibition of human KDAC6 using FITC-labeled histone H4 acetylated peptide as substrate after 60 mins by fluorescence assay.

Experiment [2] has as its target T2, Histone deacetylase 1 (Homo sapiens, UniProt Q13547). Kind of experiment: Inhibition of human KDAC1 at 30 uM using substrate A after 60 mins by fluorescence assay relative to control.
For experiment [3], the target named is T3, Histone deacetylase 8 (Homo sapiens) (UniProt Q9BY41).
T3 sequence (whole entry): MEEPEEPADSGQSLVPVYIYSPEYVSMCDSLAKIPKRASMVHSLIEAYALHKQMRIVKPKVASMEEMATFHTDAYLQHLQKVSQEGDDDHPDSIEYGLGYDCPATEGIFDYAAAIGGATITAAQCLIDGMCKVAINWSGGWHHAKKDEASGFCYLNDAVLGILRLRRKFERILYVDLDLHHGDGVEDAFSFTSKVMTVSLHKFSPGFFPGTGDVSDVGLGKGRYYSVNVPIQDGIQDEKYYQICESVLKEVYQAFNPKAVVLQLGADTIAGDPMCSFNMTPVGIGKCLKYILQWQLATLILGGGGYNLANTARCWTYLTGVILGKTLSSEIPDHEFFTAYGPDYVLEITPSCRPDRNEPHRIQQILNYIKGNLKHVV
Kind of experiment: Inhibition of human KDAC8 at 30 uM after 60 mins by fluorescence assay relative to control.

The target in experiment [4] is T4, Histone deacetylase 3 (Homo sapiens, UniProt O15379). Kind of experiment: Inhibition of human KDAC3 at 30 uM using FITC-labeled p53 acetylated peptide as substrate after 60 mins by fluorescence assay relative to control.
For experiment [5], the target named is T2, Histone deacetylase 1. The experiment in a line: Inhibition of human KDAC1 using substrate A after 60 mins by fluorescence assay.
The target in experiment [6] is T5, Histone deacetylase 8 (Homo sapiens, UniProt Q9BY41).
T5 sequence (Q9BY41 whole entry): T3 sequence (whole entry)
Kind of experiment: Inhibition of human KDAC8 after 60 mins by fluorescence assay.

In experiment [7] the target is T4, Histone deacetylase 3. The experiment in a line: Inhibition of human KDAC3 using FITC-labeled p53 acetylated peptide as substrate after 60 mins by fluorescence assay.
Experiment [8] deals with T6, Protein deacetylase HDAC6 (Homo sapiens) (UniProt Q9UBN7).
T6 sequence (whole entry): T1 sequence (Q9UBN7 whole entry)
The conditions noted are these: at 30 µM.
Description: Inhibition of human KDAC6 at 30 uM using FITC-labeled histone H4 acetylated peptide as substrate after 60 mins by fluorescence assay relative to control

Bounds are passed on as bounds.

T2 sequence (Q13547 whole entry): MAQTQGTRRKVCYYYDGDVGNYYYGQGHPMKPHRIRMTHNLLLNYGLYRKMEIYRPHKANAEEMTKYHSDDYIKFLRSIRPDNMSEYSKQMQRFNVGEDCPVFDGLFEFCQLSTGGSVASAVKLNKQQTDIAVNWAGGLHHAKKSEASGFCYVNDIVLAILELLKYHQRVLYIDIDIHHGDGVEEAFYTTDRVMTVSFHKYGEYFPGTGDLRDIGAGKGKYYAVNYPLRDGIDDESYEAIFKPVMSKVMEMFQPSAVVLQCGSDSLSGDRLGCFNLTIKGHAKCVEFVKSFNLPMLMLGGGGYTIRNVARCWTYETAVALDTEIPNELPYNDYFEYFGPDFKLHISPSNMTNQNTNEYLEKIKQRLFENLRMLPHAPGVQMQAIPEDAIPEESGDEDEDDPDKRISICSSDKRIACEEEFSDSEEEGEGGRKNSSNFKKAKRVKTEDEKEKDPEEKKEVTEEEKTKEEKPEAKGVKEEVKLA
T4 sequence (O15379 whole entry): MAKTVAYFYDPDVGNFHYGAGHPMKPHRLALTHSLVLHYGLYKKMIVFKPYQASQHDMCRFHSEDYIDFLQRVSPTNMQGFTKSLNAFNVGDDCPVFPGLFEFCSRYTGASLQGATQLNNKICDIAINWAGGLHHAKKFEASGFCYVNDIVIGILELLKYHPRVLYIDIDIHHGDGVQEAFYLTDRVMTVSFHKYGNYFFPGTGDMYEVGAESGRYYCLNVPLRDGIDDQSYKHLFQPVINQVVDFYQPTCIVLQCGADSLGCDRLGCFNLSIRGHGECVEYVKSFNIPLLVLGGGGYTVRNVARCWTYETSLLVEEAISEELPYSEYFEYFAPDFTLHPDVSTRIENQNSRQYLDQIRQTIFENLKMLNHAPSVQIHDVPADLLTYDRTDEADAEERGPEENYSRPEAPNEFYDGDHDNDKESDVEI

The IC50 is the point on the concentration scale where inhibition reaches its midpoint. Usually inhibition stands for the percentage by which the read-out fell short of the control. Low values mean a response near the control, high ones a response far below the control. On to `CC(C)C[C@@H]1N=C(c2ccccc2)c2ccccc2NC1=O`, for which the IC50 in experiment [1], in experiment [5], in experiment [6] and in experiment [7] was more than 30 µM in each case. In addition, the inhibition in experiment [2] amounted to 2.85%; in experiment [3] it was 0%; in experiment [4], 0%; in experiment [8] it was 5.48%.

Take `COC(=O)CCCCN1C(=O)[C@H](CC(=O)OC(C)(C)C)N=C(c2ccccc2)c2ccccc21`: the IC50 in experiment [1], in experiment [5], in experiment [6] and in experiment [7] was more than 30 µM throughout. Besides, the inhibition in experiment [2] is 3.65%; in experiment [3] it was 0%; in experiment [4], 0%; in experiment [8], 0%.

For `CC(C)[C@@H]1N=C(c2ccccc2)c2ccccc2N(CCCCC(=O)O)C1=O`, the half-inhibitory concentration (IC50) in experiment [1], in experiment [5], in experiment [6] and in experiment [7] was more than 30 µM throughout. Also, the inhibition in experiment [2] is 2.24%; in experiment [3], 3.18%; in experiment [4], 0%; in experiment [8], 0%.

Take `COC(=O)CCCCN1C(=O)[C@H](Cc2cc3ccccc3n2C(=O)OC(C)(C)C)N=C(c2ccccc2)c2ccccc21`: the IC50 in experiment [1], in experiment [5], in experiment [6] and in experiment [7] was more than 30 µM in each case. Further, the inhibition stood at 1.64% in experiment [2], 0% in experiment [3], 0% in experiment [4] and 0% in experiment [8].

As for `CC(C)(C)OC(=O)CC[C@H]1N=C(c2ccccc2)c2ccccc2NC1=O`, the IC50 in experiment [1], in experiment [5], in experiment [6] and in experiment [7] was more than 30 µM each time. In addition, the inhibition in experiment [2] was 10.5%; in experiment [3] it was 4.35%; in experiment [4] it was 3.85%; in experiment [8], 4.3%.

On to `CC[C@@H](C)[C@@H]1N=C(c2ccccc2)c2ccccc2N(CCCCC(=O)NO)C1=O`, for which the IC50 in experiment [1] is 3.75 µM; in experiment [5], 11 µM; in experiment [6], more than 30 µM; in experiment [7], 1.03 µM. For the same molecule, the inhibition is 75.1% in experiment [2], 33.1% in experiment [3], 96.4% in experiment [4] and 90.9% in experiment [8].

Consider `COC(=O)CCCCN1C(=O)[C@H](CC(C)C)N=C(c2ccccc2)c2ccccc21`, for which the IC50 in experiment [1], in experiment [5], in experiment [6] and in experiment [7] was more than 30 µM each time. The inhibition in experiment [2] stood at 8.85%; in experiment [3] it was 7.63%; in experiment [4] it was 0%; in experiment [8] it was 0%.

With `O=C(O)CCCCN1C(=O)[C@H](CCC(=O)NC(c2ccccc2)(c2ccccc2)c2ccccc2)N=C(c2ccccc2)c2ccccc21`, the inhibition in experiment [2] was 3.58%; in experiment [3] it was 11%; in experiment [4], 0%. Moreover, the IC50 in experiment [5] and in experiment [6] was more than 30 µM throughout.

On to `O=C(O)CCCCN1C(=O)[C@H](CCC(=O)O)N=C(c2ccccc2)c2ccccc21`, for which the results for the inhibition in experiment [2], in experiment [3] and in experiment [4] were 13.6%, 6.92% and 1.47%, respectively. Besides, the IC50 in experiment [5], in experiment [6] and in experiment [7] was more than 30 µM in each case.

As for `N[C@H](Cc1ccc(Cl)cc1Cl)C(=O)N1Cc2ccccc2C1`, the IC50 was more than 30 µM in experiment [1], 27.4 µM in experiment [5], 1.09 µM in experiment [6] and 20 µM in experiment [7].

On to `O=C(O)CCCCN1C(=O)[C@H](CC(=O)NC(c2ccccc2)(c2ccccc2)c2ccccc2)N=C(c2ccccc2)c2ccccc21`, for which the inhibition was determined as 8.49% in experiment [2], 11.4% in experiment [3] and 7.32% in experiment [4]. Besides, the IC50 in experiment [5], in experiment [6] and in experiment [7] was more than 30 µM each time.

As to `COC(=O)CCCCN1C(=O)[C@H](CCC(=O)NC(c2ccccc2)(c2ccccc2)c2ccccc2)N=C(c2ccccc2)c2ccccc21`, the inhibition in experiment [2] is 7.24%; in experiment [3], 0%; in experiment [4], 0%. The IC50 in experiment [5], in experiment [6] and in experiment [7] was more than 30 µM each time.

For `O=C(CCCCN1C(=O)[C@H](CCC(=O)NC(c2ccccc2)(c2ccccc2)c2ccccc2)N=C(c2ccccc2)c2ccccc21)NO`, the results for the inhibition in experiment [2], in experiment [3] and in experiment [4] were 78.7%, 53.1% and 99.1%, respectively. For the same molecule, the IC50 in experiment [5] was determined as 9.24 µM; in experiment [6], 23.5 µM; in experiment [7], 0.83 µM.

For `Cc1c(C)c(S(=O)(=O)NC(=N)NCCC[C@@H]2N=C(c3ccccc3)c3ccccc3N(CCCCC(=O)O)C2=O)c(C)c2c1OC(C)(C)C2`, the inhibition in experiment [2] amounted to 4.96%; in experiment [3], 10.2%; in experiment [4], 3.8%. Besides, the IC50 in experiment [5], in experiment [6] and in experiment [7] was more than 30 µM each time.

With `O=C(CCCCN1C(=O)[C@H](CC(=O)NC(c2ccccc2)(c2ccccc2)c2ccccc2)N=C(c2ccccc2)c2ccccc21)NO`, the values for the inhibition in experiment [2], in experiment [3] and in experiment [4] were 43.1%, 43.9% and 89.5%, respectively. In addition, the figures for the IC50 in experiment [5], in experiment [6] and in experiment [7] were more than 30 µM, more than 30 µM and 4.31 µM, respectively.

With `COC(=O)CCCCN1C(=O)[C@H](CCCNC(=N)NS(=O)(=O)c2c(C)c(C)c3c(c2C)CC(C)(C)O3)N=C(c2ccccc2)c2ccccc21`, the inhibition in experiment [2] amounted to 4.8%; in experiment [3] it was 7.3%; in experiment [4], 3.33%. The IC50 in experiment [5], in experiment [6] and in experiment [7] was more than 30 µM in each case.

Turning to `O=C(O)CC[C@@H]1N=C(c2ccccc2)c2ccccc2N(CCCCC(=O)NO)C1=O`, the figures for the inhibition in experiment [2], in experiment [3] and in experiment [4] were 48.1%, 29.7% and 79.8%, respectively. Further, the values for the concentration for half-maximal inhibition (IC50) in experiment [5], in experiment [6] and in experiment [7] were more than 30 µM, more than 30 µM and 8.71 µM, respectively.

Consider `O=C(CCCCN1C(=O)[C@H](CCC(=O)NO)N=C(c2ccccc2)c2ccccc21)NO`, for which the inhibition turned out to be 62.5% in experiment [2], 74.7% in experiment [3] and 92.2% in experiment [4]. For the same molecule, the concentration for half-maximal inhibition (IC50) in experiment [5] stood at 15 µM; in experiment [6] it was 8.52 µM; in experiment [7], 2.57 µM.

As to `O=C(O)CCCCN1C(=O)[C@H](Cc2cncn2C(c2ccccc2)(c2ccccc2)c2ccccc2)N=C(c2ccccc2)c2ccccc21`, the inhibition in experiment [2] came to 7.49%; in experiment [3], 10.4%; in experiment [4] it was 0%. Further, the IC50 in experiment [5], in experiment [6] and in experiment [7] was more than 30 µM in each case.

On to `COC(=O)CCCCN1C(=O)[C@H](CC(=O)NC(c2ccccc2)(c2ccccc2)c2ccccc2)N=C(c2ccccc2)c2ccccc21`, for which the figures for the inhibition in experiment [2], in experiment [3] and in experiment [4] were 8.7%, 3.62% and 5.6%, respectively. In addition, the half-maximal inhibitory concentration (IC50) in experiment [5], in experiment [6] and in experiment [7] was more than 30 µM throughout.

The values are drawn from ChEMBL document CHEMBL3997794, “Design and synthesis of benzodiazepine analogs as isoform-selective human lysine deacetylase inhibitors” (Eur J Med Chem, 2017).
